Results: patent EP4810052A2, “HCRHR2 SELECTIVE POLYPEPTIDES” (Gubra A/S, priority 2023, dated 2026)
Like-named read-outs stand apart in the source and are kept apart here. Starred links: 1 amine or outer side, 2 acyl side, 3 side chain; linkers in the order of their positions; H or OH if unused. Non-standard residues stand in square brackets, D forms with d. Residues, ends and D or L forms follow the SMILES beside them. Groups on a side chain read outwards from the residue. *: point of attachment. C20 diacid = O=C(O)CCCCCCCCCCCCCCCCCCC(=O)*; γGlu = O=C(O)[C@H](CCC(=O)[*:2])N[*:1]; NMeI = CC[C@H](C)[C@H](NC)C(=O)O; AEEA = NCCOCCOCC(=O)O; Aib = CC(C)(N)C(=O)O

Key:
[1] = Thioflavin T fibril formation assay of purified peptides; format: physicochemical; parameters: key: Amyloid fibril formation detected by an increase in ThT fluorescence was denoted with "Yes"; samples without increasing ThT fluorescence hence not forming amyloid fibrils were denoted "No"; conditions: for Amyloid fibril formation + semaglutide (Ozempic®), pH 7.4: 200 µM compound dissolved in semaglutide drug product, listed as None = drug product alone; for Amyloid fibril formation pH 7.0 / Amyloid fibril formation pH 7.5 / Amyloid fibril formation pH 8.0: 200 µM in 50 mM phosphate buffer; for Fibrillation (pH 7.5): pH 7.5, ThT assay
Procedure, shortened: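 Fibril formation read as rising ThT emission at 480 nm (450 nm excitation), 4 µM ThT, over 96 h at 40°C with alternating 5-min rest and 700 rpm shaking cycles, in triplicate. Samples were 200 µM compound in 50 mM phosphate at various pH values, or co-formulated at 200 µM in semaglutide product at pH 7.4.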

[2] = Chemical stability of purified peptides (RP-UHPLC main peak purity loss); format: physicochemical; conditions: for Purity loss (RP-UPLC analysis) T14-T0 (%) / Chemical stability at pH 7.5 after 14 days at 40°C (% degradation): 14 days; for Chemical stability at pH 7.5 after 14 days at 40°C (% degradation): first value of cell
Procedure, shortened: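 Purity loss is the drop in RP-UHPLC main-peak area fraction (215 nm detection, C8 column at 50 °C) from time zero to day 14 and/or day 28 at 40 °C. Samples held roughly 1.0 mg/ml peptide in 50 mM phosphate, pH 7.5, with other pH targets also tested.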

PK in mice = format: in vivo; parameters: T½ / MRT: unit: h; conditions: for MRT / T½ / clearance / half-life / Cmax / Tmax: Mouse; for bioavailability / clearance / half-life / Cmax / Tmax: male, in vivo; for bioavailability: NMRI, mouse; for clearance / half-life / Cmax / Tmax: NMRI/RjHan; for half-life: read-out: T½ (converted)
Experimental: Lean male NMRI/RjHan mice were obtained from JanVier (JanVier Labs, France) at 6 weeks of age. The animals were single housed under a 12/12 h dark-light cycle, light off at 3 PM. Room temperature was controlled to 22°C ± 1°C, with 60 % ± 20% humidity. Animals had ad libitum access to regular rodent chow (Altromin 1324, Brogaarden, Denmark) and tap water.
After 2 weeks of acclimatization, the animals were randomized into treatment groups (n=9 per group) based on body weight. Animals were dosed IV with one peptide and SC with another peptide (15 or 50 nmol/kg) Plasma samples were collected for PK analysis at times 0.17, 1, 3, 6, 24, 30, 48, 72 and 96 hours post dosing in a sparse sampling design with 3 mice per group per timepoint. Plasma samples were analyzed using LC-MSMS and PK parameters were estimated by Non-Compartmental Analysis (NCA).

hCRHR2a = biological target: T1, hCRHR2a (Homo sapiens, UniProt Q13324); assay: cAMP potency, transiently transfected CHO-K1 cells, hCRHR2a; format: cell-based; conditions: transiently transfected CHO-K1, average n=3; read-out: Transient cell system EC50 (nM) hCRHR 2a
T1 construct: DYK (FLAG); host or cells: CHO-K1, transiently transfected
T1 sequence (Q13324 1-411): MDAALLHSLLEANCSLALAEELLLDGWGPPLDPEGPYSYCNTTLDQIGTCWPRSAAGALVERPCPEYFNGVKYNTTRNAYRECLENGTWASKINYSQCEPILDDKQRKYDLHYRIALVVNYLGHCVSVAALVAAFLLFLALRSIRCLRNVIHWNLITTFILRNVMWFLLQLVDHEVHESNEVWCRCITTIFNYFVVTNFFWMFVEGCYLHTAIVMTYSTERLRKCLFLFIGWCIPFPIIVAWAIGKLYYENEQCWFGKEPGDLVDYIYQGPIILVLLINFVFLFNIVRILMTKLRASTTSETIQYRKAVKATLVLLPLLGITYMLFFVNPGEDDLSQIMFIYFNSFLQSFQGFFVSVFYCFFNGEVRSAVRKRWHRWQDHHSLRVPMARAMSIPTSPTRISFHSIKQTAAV

pCRHR1 = assay: cAMP potency, transiently transfected CHO-K1 cells, pCRHR1; format: cell-based, pig; conditions: transiently transfected CHO-K1, average n=3; read-out: Transient cell system EC50 (nM) pCRHR 1
Experimental: Selected peptides were tested for potency on different species (mouse, rat, porcine) using transiently transfected CHO-K1 cells using the general procedure.

## CC[C@H](C)[C@H](NC)C(=O)N[C@H](C(=O)N[C@@H](CC(C)C)C(=O)N[C@@H](CO)C(=O)N[C@@H](CC(C)C)C(=O)N[C@@H](CC(=O)O)C(=O)N[C@H](C(=O)N1CCC[C@H]1C(=O)N[C@H](C(=O)NCC(=O)N[C@@H](CC(C)C)C(=O)N[C@@H](CC(C)C)C(=O)N[C@@H](CCC(N)=O)C(=O)N[C@H](C(=O)N[C@@H](CC(C)C)C(=O)N[C@@H](CC(C)C)C(=O)N[C@@H](CCC(=O)O)C(=O)N[C@@H](CCC(N)=O)C(=O)N[C@@H](C)C(=O)N[C@@H](CCCNC(=N)N)C(=O)N[C@@H](C)C(=O)N[C@@H](CCCNC(=N)N)C(=O)N[C@@H](C)C(=O)N[C@@H](C)C(=O)N[C@@H](CCCNC(=N)N)C(=O)N[C@@H](CCC(=O)O)C(=O)N[C@@H](CCC(N)=O)C(=O)N[C@@H](C)C(=O)N[C@H](C(=O)N[C@@H](CCCCNC(=O)COCCOCCNC(=O)COCCOCCNC(=O)CC[C@H](NC(=O)CC[C@H](NC(=O)CCCCCCCCCCCCCCCCCCC(=O)O)C(=O)O)C(=O)O)C(=O)N[C@@H](CC(N)=O)C(=O)N[C@@H](C)C(=O)N[C@@H](CCC(=O)O)C(=O)N[C@H](C(=O)N[C@@H](CC(C)C)C(=O)N[C@@H](C)C(=O)N[C@@H](CCC(=O)O)C(=O)N[C@H](C(N)=O)C(C)C)[C@@H](C)CC)[C@@H](C)O)[C@@H](C)CC)[C@@H](C)CC)C(C)C)C(C)C [SEQ ID NO: 6] (H-[NMeI]VLSLDVPIGLLQILLEQARARAAREQATK([AEEA-AEEA-γGlu-γGlu-C20 diacid])NAEILAEV-NH2)
[1]
  Amyloid fibril formation + semaglutide (Ozempic®), pH 7.4: No
  Amyloid fibril formation pH 7.0: No
  Amyloid fibril formation pH 7.5: No
  Amyloid fibril formation pH 8.0: No
  Fibrillation (pH 7.5): No
[2]; pH 7.0, 40°C
  Purity loss (RP-UPLC analysis) T14-T0 (%): -1.8%
[2]; pH 7.0, 40°C, 28 days
  Purity loss (RP-UPLC analysis) T28-T0 (%): -2.0%
[2]; pH 7.5, 40°C
  Purity loss (RP-UPLC analysis) T14-T0 (%): -1.1%
  Chemical stability at pH 7.5 after 14 days at 40°C (% degradation): -1.0%
[2]; pH 7.5, 40°C, 28 days
  Purity loss (RP-UPLC analysis) T28-T0 (%): -2.6%
[2]; pH 7.5, 40°C, 28 days, second value of cell
  Chemical stability at pH 7.5 after 28 days at 40°C (% degradation): -3.5%
[2]; pH 8.0, 40°C
  Purity loss (RP-UPLC analysis) T14-T0 (%): -3.1%
[2]; pH 8.0, 40°C, 28 days
  Purity loss (RP-UPLC analysis) T28-T0 (%): -7.1%
PK in mice
  MRT: 16
  T½: 14.7
PK in mice; sc
  bioavailability: 78%
PK in mice; iv, 15 nmol/kg i.v.
  clearance: 3.3 mL/h/kg
  half-life: 14.7 h
PK in mice; sc, 15 nmol/kg s.c.
  Cmax: 90 nM
  Tmax: 24 h
  half-life: 16 h
hCRHR2a
  EC50: 0.023 nM
pCRHR1
  EC50: > 5000 nM

## CC[C@H](C)[C@H](NC)C(=O)N[C@H](C(=O)N[C@@H](CC(C)C)C(=O)N[C@@H](CO)C(=O)N[C@@H](CC(C)C)C(=O)N[C@@H](CC(=O)O)C(=O)N[C@H](C(=O)N1CCC[C@H]1C(=O)N[C@H](C(=O)NCC(=O)N[C@@H](CC(C)C)C(=O)N[C@@H](CC(C)C)C(=O)N[C@@H](CCC(N)=O)C(=O)N[C@H](C(=O)N[C@@H](CC(C)C)C(=O)N[C@@H](CC(C)C)C(=O)N[C@@H](CCC(=O)O)C(=O)N[C@@H](CCC(N)=O)C(=O)N[C@@H](C)C(=O)N[C@@H](CCCNC(=N)N)C(=O)N[C@@H](C)C(=O)N[C@@H](CCCNC(=N)N)C(=O)N[C@@H](C)C(=O)N[C@@H](C)C(=O)N[C@@H](CCCNC(=N)N)C(=O)N[C@@H](CCC(=O)O)C(=O)N[C@@H](CCC(N)=O)C(=O)N[C@@H](C)C(=O)N[C@@H](CCCCNC(=O)COCCOCCNC(=O)COCCOCCNC(=O)CC[C@H](NC(=O)CC[C@H](NC(=O)CCCCCCCCCCCCCCCCCCC(=O)O)C(=O)O)C(=O)O)C(=O)N[C@H](C(=O)N[C@@H](CC(N)=O)C(=O)NC(C)(C)C(=O)N[C@@H](CCC(=O)O)C(=O)N[C@H](C(=O)N[C@@H](CC(C)C)C(=O)N[C@@H](C)C(=O)N[C@@H](CCC(=O)O)C(=O)N[C@H](C(N)=O)C(C)C)[C@@H](C)CC)[C@@H](C)O)[C@@H](C)CC)[C@@H](C)CC)C(C)C)C(C)C [SEQ ID NO: 16] (H-[NMeI]VLSLDVPIGLLQILLEQARARAAREQAK([AEEA-AEEA-γGlu-γGlu-C20 diacid])TN[Aib]EILAEV-NH2)
[1]
  Amyloid fibril formation + semaglutide (Ozempic®), pH 7.4: No
  Amyloid fibril formation pH 7.0: No
  Amyloid fibril formation pH 7.5: No
  Amyloid fibril formation pH 8.0: No
  Fibrillation (pH 7.5): No
[2]; pH 7.0, 40°C
  Purity loss (RP-UPLC analysis) T14-T0 (%): -0.6%
[2]; pH 7.0, 40°C, 28 days
  Purity loss (RP-UPLC analysis) T28-T0 (%): -1.1%
[2]; pH 7.5, 40°C
  Purity loss (RP-UPLC analysis) T14-T0 (%): -0.1%
  Chemical stability at pH 7.5 after 14 days at 40°C (% degradation): -0.6 / %
[2]; pH 7.5, 40°C, 28 days
  Purity loss (RP-UPLC analysis) T28-T0 (%): -0.3%
[2]; pH 8.0, 40°C
  Purity loss (RP-UPLC analysis) T14-T0 (%): -0.5%
[2]; pH 8.0, 40°C, 28 days
  Purity loss (RP-UPLC analysis) T28-T0 (%): -1.1%
PK in mice
  MRT: 21.5
  T½: 15.9
PK in mice; sc
  bioavailability: 62%
PK in mice; iv, 15 nmol/kg i.v.
  clearance: 3.7 mL/h/kg
  half-life: 15.9 h
PK in mice; sc, 15 nmol/kg s.c.
  Cmax: 60 nM
  Tmax: 6 h
  half-life: 14.8 h
hCRHR2a
  EC50: 0.025 nM
pCRHR1
  EC50: > 5000 nM
